{"source": "patent US20200078404A1", "about": "“COMBINATION OF A CELL THERAPY AND AN IMMUNOMODULATORY COMPOUND” (Juno Therapeutics, Inc., priority 2017, published 2020)", "key": {"[1]": {"test_system": "Raji lymphoma tumor cells", "test": "Raji lymphoma xenograft model, anti-CD19 CAR-expressing cells with Compound 1", "type": "in vivo, mouse", "conditions": "Compound 1 0.3 mg/kg i.p. daily, Concurrent and Delayed groups, combined with anti-CD19 CAR-expressing cells, vs CAR-expressing cells alone", "procedure": "The anti-tumor efficacy of CAR-expressing T cells in combination with Compound 1 was assessed by monitoring tumors in a tumor xenograft model. […] T cell compositions were generated from three different donors.\nNOD.Cg.Prkdc^scidIL2rg^tm1Wjl/SzJ (NSG) mice were injected intravenously (i.v.) with 0.5×10^6 Raji lymphoma tumor cells (an immortalized human B lymphocyte tumor cell line that expresses CD19) that were transfected with firefly luciferase (Raji-ffluc). Tumor engraftment was allowed to occur for 6 days and verified using bioluminescence imaging. On Day 7, mice either received no treatment, or a single intravenous (i.v.) injection of anti-CD19 CAR-expressing cells at a low dose (0.5×10^6 cells) or a high dose (1.0×10^6 cells). […] Tumor burden was assessed by bioluminescence every 10 days. For bioluminescence imaging, mice received intraperitoneal (i.p.) injections of luciferin substrate (CaliperLife Sciences, Hopkinton, Mass.) resuspended in PBS (15 μg/g body weight). The average radiance (p/s/cm^2/sr) was determined."}, "[2]": {"test_system": "anti-CD19 CAR-expressing T cells", "test": "Serial stimulation with K562.CD19: expansion (cell doublings)", "type": "cell-based, human", "from_the_text": "(§1) Every 3-4 days (start of each new round), the cells were counted."}, "[3]": {"test_system": "anti-CD19 CAR-expressing T cells", "test": "T cell surface markers of anti-CD19 CAR-expressing T cells incubated with K562.CD19", "type": "cell-based, human"}, "[4]": {"test_system": "anti-CD19 CAR-expressing T cells", "test": "Surface markers after anti-idiotypic antibody stimulation", "type": "cell-based, human", "from_the_text": "CAR-expressing T cells were stained for CD3, CD4, CD8 and the surrogate marker for CAR expression, and also for the following markers: CD25, PD-1, and CD69."}, "[5]": {"test_system": "anti-CD19 CAR-expressing T cells", "test": "Cytokine production of anti-CD19 CAR-expressing T cells incubated with K562.CD19 target cells", "type": "cell-based, human"}, "[6]": {"test_system": "anti-CD19 CAR-expressing T cells", "test": "Cytokine production after anti-idiotypic antibody stimulation", "conditions": "anti-idiotypic antibody 0.3-30 μg/ml, 24 hours; Compound 1 100, 1000 nM; lenalidomide 500, 5000 nM"}, "K562.CD19 target cells [7]": {"test_system": "K562.CD19 target cells", "test": "Cytolytic function of anti-CD19 CAR-expressing T cells against K562.CD19 target cells", "type": "cell-based, human", "procedure": "K562.CD19 target cells were transduced with NucLight Red to permit their tracking by microscopy. Cytolytic activity was assessed by measuring the loss of viable target cells over a period of five days, as determined by red fluorescent signal (using the IncuCyte® Live Cell Analysis System, Essen Bioscience)."}, "Ikaros": {"test_system": "Ikaros", "test": "Intracellular Ikaros in anti-CD19 CAR-expressing T cells (flow cytometry)", "type": "cell-based, human", "procedure": "Cells of the enriched CD4+ and CD8+ compositions were separately activated with anti-CD3/anti-CD28 beads and subjected to lentiviral transduction with a vector encoding an anti-CD19 CAR. […] Transduced populations then were separately incubated in the presence of stimulating reagents for cell expansion."}, "K562.CD19 target cells [8]": {"test_system": "K562.CD19 target cells", "test": "Serial stimulation with K562.CD19: cytolytic function at day 24", "type": "cell-based, human", "conditions": "day 24 after serial stimulation", "from_the_text": "as §1"}, "[9]": {"test_system": "anti-CD19 CAR-expressing T cells", "test": "Serial stimulation with K562.CD19: surface markers", "type": "cell-based, human", "procedure": "as §1\nExpression of select surface markers was assessed on cells at day 4 (i.e., 4 days after the first stimulation) and day 28 (i.e., 4 days after the seventh stimulation). Specifically, harvested cells were analyzed by flow cytometry for CD3, CD4, CD8 and the surrogate marker for CAR expression, and also for the following surface markers: CD69, CD107a, PD-1, CD25, CD62L, CCR7, CD45RO, CD27, and LAG3."}}, "data": [{"smiles": "Cc1nc2cccc(N)c2c(=O)n1C1CCC(=O)NC1=O", "note": "(stereo not drawn) [Compound 1]", "values": [{"measurement": "tumor burden and survival", "setting": "[1]", "result": "reduce tumor burden and improve survival data"}, {"measurement": "cell counts of anti-CD19 CAR-expressing T cells", "setting": "[2]; 10 nM and 100 nM Compound 1, after 24 days", "result": "higher than the untreated controls for two out of three donors"}, {"measurement": "number of doublings of CAR+ cells", "setting": "[2]; 500 nM Compound 1, rounds after 3-4 rounds of stimulation", "result": "lower than the untreated control groups"}, {"measurement": "expression of CD27", "setting": "[3]; all donors and E:T ratios", "result": "downregulated in a concentration-dependent manner"}, {"measurement": "expression of CD45RO", "setting": "[3]; all donors and E:T ratios", "result": "increased"}, {"measurement": "expression of CD69 and LAG3", "setting": "[3]; cells derived from donor 3", "result": "increased in a concentration-dependent manner"}, {"measurement": "surface markers CD25 and CD69", "setting": "[4]; CD4+ and CD8+ CAR-expressing T cells, day 4, some donors", "result": "increase in surface markers CD25 and CD69"}, {"measurement": "expression of PD-1", "setting": "[4]; day 4, unchanged or decreased in the other donors", "result": "increased in the presence of Compound 1 or lenalidomide in cells generated from at least one donor"}, {"measurement": "cytokine production compared to lenalidomide at equivalent concentrations", "setting": "[5]", "result": "greater cytokine production across multiple conditions"}, {"measurement": "cytokine production (IFN-γ, IL-2, TNF-α)", "setting": "[5]; concentration-dependent, E:T 5:1 and 2.5:1, 24 hours, vs vehicle", "result": "increased"}, {"measurement": "IFN-γ, IL-2 and TNF-α production", "setting": "[6]", "result": "increased relative to the vehicle control"}, {"measurement": "cytolytic activity of anti-CD19 CAR-expressing cells", "setting": "K562.CD19 target cells [7]; 2.5:1 E:T ratio, some donors", "result": "slightly reduced cytolytic activity"}, {"measurement": "cytolytic activity of anti-CD19 CAR-expressing T cells", "setting": "K562.CD19 target cells [7]; 5:1 E:T ratio, high concentrations, Donor 2, no effects with Donors 1 and 3", "result": "slight but consistent increase in cytolytic activity"}, {"measurement": "cytolytic function of anti-CD19 CAR-expressing T cells", "setting": "K562.CD19 target cells [7]; five days, three donors", "result": "limited effect on cytolytic function"}, {"measurement": "reduction in Ikaros expression compared to lenalidomide", "setting": "Ikaros", "result": "greater reduction in Ikaros expression"}, {"measurement": "intracellular Ikaros expression", "setting": "Ikaros; CD4+ and CD8+ anti-CD19 CAR-expressing T cells", "result": "concentration-dependent decrease in intracellular Ikaros expression"}, {"measurement": "cytolytic activity of anti-CD19 CAR-expressing T cells", "setting": "K562.CD19 target cells [8]", "result": "increase the cytolytic activity"}, {"measurement": "expression of CD28", "setting": "[9]; CD4+ and CD8+ CAR-expressing T cells, day 28, three donors", "result": "decreased in a dose-dependent manner"}, {"measurement": "PD-1 expression", "setting": "[9]; both E:T ratios, day 4 and day 28", "result": "downregulated to some degree in all donors"}, {"measurement": "CD25 and LAG3 expression", "setting": "[9]; day 4", "result": "upregulated across all three donors"}, {"measurement": "CCR7 expression", "setting": "[9]; day 28", "result": "generally decreased at day 28"}]}]}
